According to patent US12357585B2, “Cannabigerol and pharmaceutical compositions comprising cannabigerol for use in the treatment of insomnia” (AKASHA CORPORATION, priority 2019, dated 2025):

Test system: panel members
Test: Panel-mediated testing of Cannabis accessions with defined cannabinoid profiles (panel N=67, plus anecdotal evidence)
Format: in vivo, human
Description: This method allowed deduction, and therefore, for the first time, the introduction of a new chemotaxonomic classification system merely based on the cannabinoid composition of the plant samples (strains). 15 chemotypes are defined and many more sub-chemotypes are lately added. The samples given to panel members (accessions) contained Cannabis flos, the dried flower tips of the female Cannabis plant. […] All the 45,000 different “strains” were collected and compared to the panel data and data derived from retrospective (meta-) research and anecdotal evidence mainly originated from users, for both recreative and medicinal usage, from the Netherlands. Accession from Spain is included as a parameter and seemed important for the chemotaxonomic scheme for Cannabis species.
The anecdotal evidence is derived from and the panel members are selected from persons, men and women, of the age of 18 till 72 years old. They consumed cannabis joints or vapor having defined cannabinoid profiles, and record the effect during time. Monitoring takes 24 hours, to include data about wear-off problems after night (the next day). The cannabinoids according to the invention may for example be consumed as follows: • 1—Administered as Cannabis simplex per 50 mg unit dose for self-titration. […]

CCCCCc1cc(O)c(C/C=C(\C)CCC=C(C)C)c(O)c1 [Cannabigerol]
sleep attained by subjects (all subjects, in high concentration range "narcotic"): good or very good deep
Effects (panel session, vapor, joints or tea potion, ad libitum, effects dosage and patient related): “indica” or “stoned” effects; drowsiness
